Results from patent US20260072027A1, “Peptides And Method” (Queen Mary University of London, priority 2022, published 2026).
Where no end group is shown, it is not given here. [ ]: non-standard residue; d: D form. Dopa = N[C@@H](Cc1ccc(O)c(O)c1)C(=O)O; Cya = N[C@@H](CS(=O)(=O)O)C(=O)O

Assays:
CD4+ T-cells (PBMCs) = assay: In vitro peptide stimulation and T-cell proliferation assay, CD4+; type: cell-based, human
Description: (§1) In vitro peptide stimulation and T-cell proliferation assay. Peripheral blood mononuclear cells (PBMCs) were freshly isolated from type 1 diabetes and healthy individuals using Ficoll-Hypaque density gradient centrifugation. PBMCs were labelled with the fluorescent dye CellTrace Violet (Invitrogen, Thermo Fisher Scientific) and cultured (2×10^5 cells/well) in round-bottom 96-well plates (Falcon, Becton Dickinson) with RPMI-1640 medium (Gibco, Thermo Fisher Scientific) supplemented with 5% autologous plasma in the presence or not of insulin peptides (20 μg/ml); PPD (10 μg/ml) and anti-CD3 (0.1 μg/ml; clone OKT3) were used as positive control. Two scrambled peptides: […] (SEQ ID NO: 17), […] (SEQ ID NO: 18), and the Exendin 9-39 fragment were used as negative controls. After 7 days, PBMCs were stained with PE-Cy7 anti-CD8 (clone RPA-T8, BD Pharmingen) and FITC anti-CD3 (clone UCHT1, BD Pharmingen). Samples were analysed by using a FACSCanto II (BD Bioscience) to evaluate T-cell proliferation measured as CellTrace Violet dilution. Cytofluorimetric analyses were performed using FlowJo Software (FlowJo, LLC). The results were given as stimulation index (SI), calculated as percentage of stimulated T-cell subset proliferation/percentage of unstimulated T-cell subset proliferation. Assay for detection of peptide specific T cells subsets was done as previously described (detailed in ESM methods, Assay for detection of peptide specific T cells)
(§2) T-cell stimulation with oxPTM-INSPs. To evaluate the immune cell response against the oxPTM-INSPs, we performed CD4+ and CD8+ T cells proliferation experiments using freshly isolated PBMCs (Study cohort 2, Table 1). Response was calculated as stimulatory index (SI) over unstimulated T-cells.

CD8+ T-cells (PBMCs) = assay: In vitro peptide stimulation and T-cell proliferation assay, CD8+; type: cell-based, human
Description: as §1, §2

serum IgG autoantibodies = assay: ELISA for autoantibody detection: serum antibody binding to native and oxPTM insulin peptides; set-up: species or system human; settings: in silico modifications; for % binders, Healthy controls / Mean ± SEM (absorbance, OD), Healthy controls / % binders, Type 1 diabetes: Study cohort 1; for % binders, Type 1 diabetes: cut-off = mean of healthy controls to Nt-INSP plus 3 SEM; for Mean ± SEM (absorbance, OD), Type 1 diabetes: Study cohort 1 sera
Procedure: ELISA for autoantibody detection. The ELISA analysis of Nt-INS and oxPTM-INS autoantibodies was performed as previously described [18](detailed in ESM methods, ELISA assay for antibody detection).
Statistical analyses. Statistical analyses were performed using Prism Software 9.0 (GraphPad, San Diego, CA, USA). Cut-off points of positivity (binders) in the antibody ELISA for each peptide were defined by the mean of optical absorbance (O.D) of healthy controls to the corresponding Nt-INSP plus three times the standard error of the mean (SEM). Specificity and sensitivity were evaluated by receiver operating characteristic (ROC) curve analysis. Area under the curve (AUC) is reported as absolute value and was tested for equality according to DeLong et al. Differences in antibody levels and T-cell stimulation indices (SI) between groups were tested by the One way ANOVA or Student's t-tests as appropriate. Correlation analyses were tested by Pearson or Spearman's test, as appropriate. Categorical analyses were performed by Chi-square or McNemar's tests, as appropriate. For each set of experiments, p values were adjusted for multiple comparison using the Holm-Sidak's test. Hierarchical cluster and Principal Component Analysis (PCA) was done using Clustvis software (https://biit.cs.ut.ee/clustvis/) and Prism Software 9.0, respectively.
Antibody reactivity of type 1 diabetes serum against the candidate oxPTM-INSP. Identified peptide candidates were synthesised and exposed to either HOCl or ^●OH to generate oxPTM-INSPs that were first assessed by TOF-MS/ES+TIC to confirm modification (FIG. 17). Antibody response against native INSPs (Nt-INSPs) and oxPTM-INSPs was evaluated by ELISA using sera from Study cohort 1.
ESM Methods ELISA assay for antibody detection. The ELISA analysis of native (Nt-INS) and modified insulin (oxPTM-INS) was performed as previously described. Briefly, the ELISA plate was coated overnight at 4° C. with 100 μl per well of modified or native insulin in 0.05 M carbonate/bicarbonate buffer pH 9.6 at 10 μg/ml. The next day, the plates were washed 3 times with 0.1% Tween PBS, followed by blocking for 2 hours at room temperature with 200 μl per well of 5% BSA in 0.1% Tween PBS. After washing, 100 μl of 1:200-diluted serum samples in 5% BSA-0.1% Tween PBS were added for additional 2 hours incubation. ELISA plates were then washed 3 times with 0.1% Tween PBS followed by probing with anti-human IgG horse radish peroxidase conjugated (HRP, Sigma) at 1:1,000 dilution in 5% BSA-0.1% Tween PBS for another 1.5 hours incubation. The ELISA plates were washed, and 100 μg/ml TMB substrate in 0.1M sodium acetate pH 6.0 plus 2 μl/10 ml of H2O2, were added. Subsequently, the reaction was stopped with 20% v/v sulphuric acid. The optical density (O.D.) was measured at 450 nm using a GENios plate reader and Magellan software (TECAN, Dorset, UK).

Substance | CD4+ T-cell response, subjects with SI > 1 (%) (CD4+ T-cells (PBMCs); Controls (N = 11)) | CD4+ T-cell response, subjects with SI > 3 (%) (CD4+ T-cells (PBMCs); Controls (N = 11)) | CD4+ T-cell response, subjects with SI > 5 (%) (CD4+ T-cells (PBMCs); Controls (N = 11)) | CD4+ T-cell response, subjects with SI > 10 (%) (CD4+ T-cells (PBMCs); Controls (N = 11)) | CD4+ T-cell response, subjects with SI > 1 (%) (CD4+ T-cells (PBMCs); Type 1 diabetes (N = 18)) | CD4+ T-cell response, subjects with SI > 3 (%) (CD4+ T-cells (PBMCs); Type 1 diabetes (N = 18)) | CD4+ T-cell response, subjects with SI > 5 (%) (CD4+ T-cells (PBMCs); Type 1 diabetes (N = 18)) | CD4+ T-cell response, subjects with SI > 10 (%) (CD4+ T-cells (PBMCs); Type 1 diabetes (N = 18)) | CD8+ T-cell response, subjects with SI > 1 (%) (CD8+ T-cells (PBMCs); Controls (N = 11)) | CD8+ T-cell response, subjects with SI > 3 (%) (CD8+ T-cells (PBMCs); Controls (N = 11)) | CD8+ T-cell response, subjects with SI > 5 (%) (CD8+ T-cells (PBMCs); Controls (N = 11)) | CD8+ T-cell response, subjects with SI > 10 (%) (CD8+ T-cells (PBMCs); Controls (N = 11)) | CD8+ T-cell response, subjects with SI > 1 (%) (CD8+ T-cells (PBMCs); Type 1 diabetes (N = 18)) | CD8+ T-cell response, subjects with SI > 3 (%) (CD8+ T-cells (PBMCs); Type 1 diabetes (N = 18)) | CD8+ T-cell response, subjects with SI > 5 (%) (CD8+ T-cells (PBMCs); Type 1 diabetes (N = 18)) | CD8+ T-cell response, subjects with SI > 10 (%) (CD8+ T-cells (PBMCs); Type 1 diabetes (N = 18)) | % binders, Healthy controls (serum IgG autoantibodies) [%] | Mean ± SEM (absorbance, OD), Healthy controls (serum IgG autoantibodies) | % binders, Type 1 diabetes (serum IgG autoantibodies) [%] | Mean ± SEM (absorbance, OD), Type 1 diabetes (serum IgG autoantibodies)
ERGYYYTPKT (Ac-ERGYYYTPKT) [in silico designed oxPTM-INSP-6 derivative] | (36.4%) | (18.2%) | (9.1%) | (0.0%) | (50.0%) | (22.2%) | (0.0%) | (0.0%) | (27.3%) | (18.2%) | (18.2%) | (9.1%) | (22.2%) | (11.1%) | (11.1%) | (5.6%) | 25 | 0.351 ± 0.044 | 100 | 0.556 ± 0.031
ERGYYYTPKTR (Ac-ERGYYYTPKTR) [oxPTM-INSP-6 version with a C-terminal arginine] | (63.6%) | (27.3%) | (0.0%) | (0.0%) | (72.2%) | (38.9%) | (15.8%) | (16.7%) | (18.2%) | (9.10%) | (9.1%) | (9.1%) | (55.6%) | (16.7%) | (16.7%) | (16.7%) | 48 | 0.423 ± 0.039 | 88 | 0.697 ± 0.058
SL-DOPA-QLEN-DOPA-Cysteate-N (SL[Dopa]QLEN[Dopa][Cya]N) [in silico designed oxPTM-INSP-3 derivative] | (27.3%) | (0.0%) | (0.0%) | (0.0%) | (66.7%) | (5.6%) | (0.0%) | (0.0%) | (18.2%) | (9.10%) | (0.0%) | (0.0%) | (33.3%) | (16.7%) | (5.5%) | (5.6%) | 30 | 0.169 ± 0.008 | 57 | 0.256 ± 0.018
SL-DOPA-QLENY-Cysteate-N (SL[Dopa]QLENY[Cya]N) [in silico designed oxPTM-INSP-3 derivative] | (54.5%) | (18.2%) | (18.2%) | (0.0%) | (50.0%) | (16.7%) | (10.5%) | (5.6%) | (36.4%) | (27.3%) | (27.3%) | (18.2%) | (44.4%) | (27.8%) | (16.7%) | (5.6%) | 17 | 0.154 ± 0.006 | 54 | 0.228 ± 0.016
